The test system of one test is MDA-MB-231. Put plainly: Cell viability assay (MTS), antiproliferative activity. As to conditions: Homo sapiens, 72 h. In kind it is cell-based. Here is the method: (§1) To preliminarily profile the bioactivity of these compounds, we adopted a streamlined approach which involved screening against KDM6A at two concentrations and evaluating antiproliferative activity against three representative cell lines – MCF-7 (ER(+) BCa), MDA-MB-231 (TNBC BCa) and Vero (a non-transformed cell line as control).
(§2) The In vitro proliferation assay was performed as reported previously[15],[16]. Detailed description of the protocol used is included in the Supplementary Information.
(§3) Cell Viability Assay. All cell lines were purchased form ATCC (Manassas, VA), and they were routinely cultured in different media recommended by the supplier. MCF-7 cells were cultured in non-phenol red DMEM (Corning, Manassas, VA) fortified with 10% charcoal treated fetal bovine serum (FBS; Atlanta Biologicals, GA) and 0.2 mM glutamine (Corning, Manassas, VA), whereas MDA-MB-231, DU-145, and Vero were cultured in DMEM with 10% FBS. […] After 24 h incubation in 37 °C under 5% CO2, cells were treated with serially diluted ligands with final DMSO concentration of 1% and incubated for additional 72 h. MTS (CellTiter 96 Aqueous One Solution Cell Proliferation Assays, Promega, Madison, WI) was added to each well 2.5 h prior to recording the absorbance at 490 nm.

The test system of a further test is VERO. The description is as above. It is filed as cell-based. To be noted: Chlorocebus sabaeus, 72 h. Here is the method: as §1, §2, §3
The subject of another test is MCF-7. The description is as above. It is filed as cell-based. As to conditions: Homo sapiens, MCF7, 72 h. The protocol: as §1, §2, §3
The target in the next test is T1, KDM6A (UTX) (Homo sapiens, UniProt O15550).
T1 construct: purchased BPS Bioscience
Put plainly: KDM cell-free assay (AlphaScreen, BPS Bioscience). It is filed as biochemical. To be noted: for IC50: Fig. 9A, read-out: IC50 (KDM6A inhibition dose response curve).

Setting [1] is: Table 5, values calculated by linear regression.

Each structure is given as a SMILES string. Where only a bound is given, the exact number is not on record here.

T1 sequence (O15550 whole entry): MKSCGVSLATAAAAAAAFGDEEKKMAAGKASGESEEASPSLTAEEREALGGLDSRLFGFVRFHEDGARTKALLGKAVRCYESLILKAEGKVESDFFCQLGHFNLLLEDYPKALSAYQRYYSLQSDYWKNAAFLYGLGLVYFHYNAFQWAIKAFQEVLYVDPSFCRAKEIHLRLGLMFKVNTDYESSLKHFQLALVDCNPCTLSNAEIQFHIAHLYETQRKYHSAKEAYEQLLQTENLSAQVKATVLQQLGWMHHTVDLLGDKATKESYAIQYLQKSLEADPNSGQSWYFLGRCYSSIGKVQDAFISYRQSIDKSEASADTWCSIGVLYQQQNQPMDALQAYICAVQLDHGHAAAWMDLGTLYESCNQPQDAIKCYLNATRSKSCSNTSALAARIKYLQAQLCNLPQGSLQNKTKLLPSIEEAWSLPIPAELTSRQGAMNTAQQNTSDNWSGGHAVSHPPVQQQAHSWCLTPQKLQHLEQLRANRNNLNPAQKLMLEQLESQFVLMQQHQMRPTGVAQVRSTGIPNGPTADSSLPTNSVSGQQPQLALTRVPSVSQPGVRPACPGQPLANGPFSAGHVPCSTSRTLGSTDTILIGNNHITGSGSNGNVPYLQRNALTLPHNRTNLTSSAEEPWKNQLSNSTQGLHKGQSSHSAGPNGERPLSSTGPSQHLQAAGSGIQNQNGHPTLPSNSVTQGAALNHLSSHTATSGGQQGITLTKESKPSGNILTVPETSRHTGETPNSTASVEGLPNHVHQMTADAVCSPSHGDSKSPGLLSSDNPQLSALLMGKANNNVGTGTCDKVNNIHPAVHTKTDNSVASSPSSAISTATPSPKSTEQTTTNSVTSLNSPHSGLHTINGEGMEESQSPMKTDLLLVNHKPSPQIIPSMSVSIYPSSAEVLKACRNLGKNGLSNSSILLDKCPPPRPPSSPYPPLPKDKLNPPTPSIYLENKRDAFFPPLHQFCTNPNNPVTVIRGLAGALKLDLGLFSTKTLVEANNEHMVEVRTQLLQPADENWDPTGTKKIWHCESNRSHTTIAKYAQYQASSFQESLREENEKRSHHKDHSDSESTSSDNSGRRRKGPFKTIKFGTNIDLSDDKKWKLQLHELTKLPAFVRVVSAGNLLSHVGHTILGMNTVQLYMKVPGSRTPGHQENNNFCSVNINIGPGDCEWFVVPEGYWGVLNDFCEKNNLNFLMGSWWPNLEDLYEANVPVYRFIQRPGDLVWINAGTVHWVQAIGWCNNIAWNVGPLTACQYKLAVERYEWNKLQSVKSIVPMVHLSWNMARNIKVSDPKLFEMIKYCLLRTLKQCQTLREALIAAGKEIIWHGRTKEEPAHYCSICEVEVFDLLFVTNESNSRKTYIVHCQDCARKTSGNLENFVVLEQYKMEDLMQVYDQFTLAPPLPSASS

With `Cc1c(O)c(=O)ccn1CCCCCn1cc(-c2ccccc2)nn1` [1d], the IC50 with MDA-MB-231 (Table 4) is 11.4 µM; in the test with VERO (Table 4), greater than 50 µM; in the test with MCF-7 (Table 4) it was greater than 50 µM; at KDM6A (UTX) it was 3.3 µM. At KDM6A (UTX) (Table 2), testing at 1 µM gave an inhibition of 12%. Moreover, the inhibition at 10 µM against KDM6A (UTX) (Table 2) came out at 100%.
Take `Cc1c(O)c(=O)ccn1CCCCCCn1cc(-c2ccccc2)nn1` [1e]: the IC50 was 12.5 µM in the test on MDA-MB-231 (Table 4), greater than 35 µM with VERO (Table 4) and greater than 50 µM in the test with MCF-7 (Table 4). For the same molecule, the inhibition at 1 µM against KDM6A (UTX) (Table 2) came to 12%. On KDM6A (UTX) (Table 2), this molecule displayed an inhibition at 10 µM of 98%.
With `Cc1ccccc1-c1cn(CCCCn2ccc(=O)c(O)c2C)nn1` [2a], the IC50 with MDA-MB-231 (Table 5) is 16.4 µM; with VERO (Table 5) it was 11.6 µM; in the test on MCF-7 (setting [1]), 42.5 µM. The inhibition at 1 µM at KDM6A (UTX) (Table 2) is 6%. In addition, the inhibition at 10 µM on KDM6A (UTX) (Table 2) stood at 100%.
For the molecule `Cc1ccccc1-c1cn(CCCCCn2ccc(=O)c(O)c2C)nn1` [2b], the IC50 in the test with MDA-MB-231 (Table 5) was 12.7 µM; in the test on VERO (Table 5), 5.8 µM; in the test on MCF-7 (Table 5), greater than 50 µM.
As to `Cc1cccc(-c2cn(CCCCn3ccc(=O)c(O)c3C)nn2)c1` [2c], the results for the IC50 in the test with MDA-MB-231 (Table 5), in the test on VERO (Table 5) and in the test with MCF-7 (setting [1]) were 10.9 µM, 5.2 µM and 62.7 µM, respectively. On KDM6A (UTX) (Table 2), this molecule registered an inhibition at 1 µM of 4%. This molecule displayed an inhibition at 10 µM against KDM6A (UTX) (Table 2) of 100%.
Consider `Cc1cccc(-c2cn(CCCCCn3ccc(=O)c(O)c3C)nn2)c1` [2d], for which the results for the IC50 with MDA-MB-231 (Table 5), in the test with VERO (Table 5) and with MCF-7 (Table 5) were 11.8 µM, 3.6 µM and greater than 50 µM, respectively.
On to `Cc1ccc(-c2cn(CCCCn3ccc(=O)c(O)c3C)nn2)cc1` [2e], for which the half-inhibitory concentration (IC50) was 7.4 µM in the test on MDA-MB-231 (Table 5), 4.1 µM in the test on VERO (Table 5) and greater than 50 µM in the test with MCF-7 (Table 5). Also, the inhibition at 1 µM at KDM6A (UTX) (Table 2) is 13%. The same molecule gave an inhibition at 10 µM on KDM6A (UTX) (Table 2) of 100%.
As to `COc1ccccc1-c1cn(CCCCn2ccc(=O)c(O)c2C)nn1` [2g], the IC50 in the test on MDA-MB-231 (Table 5) is 9.6 µM; in the test with VERO (Table 5), greater than 50 µM; in the test with MCF-7 (setting [1]) it was 66.1 µM.
Regarding `COc1ccccc1-c1cn(CCCCCn2ccc(=O)c(O)c2C)nn1` [2h], the values for the IC50 with MDA-MB-231 (Table 5), in the test with VERO (Table 5) and in the test with MCF-7 (Table 5) were 19.1 µM, greater than 50 µM and greater than 50 µM, respectively. On KDM6A (UTX) (Table 2), this molecule registered an inhibition at 1 µM of 3%. This molecule yielded an inhibition at 10 µM at KDM6A (UTX) (Table 2) of 99%.
For the molecule `COc1cccc(-c2cn(CCCCn3ccc(=O)c(O)c3C)nn2)c1` [2i], the values for the IC50 in the test with MDA-MB-231 (Table 5), in the test with VERO (Table 5) and in the test on MCF-7 (setting [1]) were 7.5 µM, greater than 50 µM and 54.8 µM, respectively. Moreover, the inhibition at 1 µM against KDM6A (UTX) (Table 2) came to 7%. At KDM6A (UTX) (Table 2), this molecule came in with an inhibition at 10 µM of 100%.
In the case of `COc1ccc(-c2cn(CCCCn3ccc(=O)c(O)c3C)nn2)cc1` [2k], the IC50 is 8.1 µM with MDA-MB-231 (Table 5), greater than 50 µM in the test on VERO (Table 5) and greater than 50 µM with MCF-7 (Table 5).
As to `COc1ccc(-c2cn(CCCCCn3ccc(=O)c(O)c3C)nn2)cc1` [2l], the IC50 in the test on MDA-MB-231 (Table 5) was 9.6 µM; in the test on VERO (Table 5) it was greater than 50 µM; with MCF-7 (Table 5) it was greater than 50 µM. This molecule also showed an inhibition at 1 µM at KDM6A (UTX) (Table 2) of 4%. Also, at KDM6A (UTX) (Table 2), at 10 µM the inhibition was 100%.
As to `Cc1c(O)c(=O)ccn1CCCCCn1cc(-c2ccccc2F)nn1` [2m], the results for the half-maximal inhibitory concentration (IC50) with MDA-MB-231 (Table 5), in the test on VERO (Table 5) and in the test with MCF-7 (Table 5) were 18.3 µM, 12.7 µM and greater than 50 µM, respectively. At KDM6A (UTX) (Table 2), this molecule came in with an inhibition at 1 µM of 16%. This molecule also gave an inhibition at 10 µM against KDM6A (UTX) (Table 2) of 100%.
As for `Cc1c(O)c(=O)ccn1CCCCCn1cc(-c2cccc(F)c2)nn1` [2n], the IC50 in the test with MDA-MB-231 (Table 5) was 6.8 µM; in the test on VERO (Table 5), 22.9 µM; with MCF-7 (Table 5) it was greater than 50 µM. Further, at 1 µM the inhibition on KDM6A (UTX) (Table 2) was 5%. Further, the inhibition at 10 µM on KDM6A (UTX) (Table 2) is 100%.
Taken in the same sequence, the figures for `Cc1c(O)c(=O)ccn1CCCCCn1cc(-c2ccc(F)cc2)nn1` [2o] were 3.6 µM, 38.8 µM, greater than 50 µM, 10% and 100%.
As for `Cc1c(O)c(=O)ccn1CCCCCn1cc(-c2ccccc2C(F)(F)F)nn1` [2p], the IC50 in the test with MDA-MB-231 (Table 5) was 18.8 µM; in the test with VERO (Table 5), 13.3 µM; in the test with MCF-7 (Table 5), greater than 50 µM. In addition, on KDM6A (UTX) (Table 2), the inhibition at 1 µM is 15%. The molecule further displayed an inhibition at 10 µM on KDM6A (UTX) (Table 2) of 99%.
As for `Cc1c(O)c(=O)ccn1CCCCn1cc(-c2ccc(N(C)C)cc2)nn1` [2q], the IC50 in the test with MDA-MB-231 (Table 5) was 9.5 µM; in the test with VERO (Table 5), greater than 50 µM; in the test with MCF-7 (Table 5), greater than 50 µM.
`Cc1c(O)c(=O)ccn1CCCCCn1cc(-c2ccc(N(C)C)cc2)nn1` [2r]: the half-inhibitory concentration (IC50) in the test on MDA-MB-231 (Table 5) was 12.5 µM; in the test with VERO (Table 5) it was greater than 50 µM; with MCF-7 (Table 5) it was greater than 50 µM.
As for `Cc1c(O)c(=O)ccn1CCCCCn1cc(-c2ccccn2)nn1` [2s], the concentration for half-maximal inhibition (IC50) with MDA-MB-231 (Table 5), with VERO (Table 5) and in the test with MCF-7 (Table 5) was greater than 50 µM in each case. The same molecule registered an inhibition at 1 µM at KDM6A (UTX) (Table 2) of 15%. In addition, the inhibition at 10 µM against KDM6A (UTX) (Table 2) was found to be 99%.
Regarding `Cc1c(O)c(=O)ccn1CCCCCCn1cc(-c2ccc(-c3ccncc3)cc2)nn1` [2u], the IC50 in the test with MDA-MB-231 (Table 5) is 1.7 µM; in the test on VERO (Table 5), 66.9 µM; in the test with MCF-7 (Table 5), greater than 50 µM; on KDM6A (UTX), 5.1 µM. The same molecule showed an inhibition at 1 µM on KDM6A (UTX) (Table 2) of 15%. The inhibition at 10 µM against KDM6A (UTX) (Table 2) was found to be 99%.
For the molecule `Cc1c(O)c(=O)ccn1CCCCn1ccc(=O)c(O)c1C` [3a], the IC50 in the test on MDA-MB-231 (Table 6), with VERO (Table 6) and in the test on MCF-7 (Table 6) was greater than 50 µM in each case. For the same molecule, the inhibition at 1 µM against KDM6A (UTX) (Table 3) is 4%. Further, the inhibition at 10 µM at KDM6A (UTX) (Table 3) was determined as 100%.
For `Cc1c(O)c(=O)ccn1CCCCCn1ccc(=O)c(O)c1C` [3b], the IC50 in the test with MDA-MB-231 (Table 6), with VERO (Table 6) and in the test with MCF-7 (Table 6) was greater than 50 µM throughout. In addition, the inhibition at 1 µM against KDM6A (UTX) (Table 3) came to 1%. The molecule further yielded an inhibition at 10 µM against KDM6A (UTX) (Table 3) of 99%.
On to `Cc1c(O)c(=O)ccn1CCCCCCn1ccc(=O)c(O)c1C` [3c], for which the IC50 in the test on MDA-MB-231 (Table 6), in the test with VERO (Table 6) and in the test on MCF-7 (Table 6) was greater than 50 µM each time. On KDM6A (UTX) (Table 3), this molecule had an inhibition at 1 µM of 2%. At KDM6A (UTX) (Table 3), this molecule displayed an inhibition at 10 µM of 100%.
On to `Cc1c(O)c(=O)ccn1CCCCCCCn1ccc(=O)c(O)c1C` [3d], for which the IC50 in the test with MDA-MB-231 (Table 6), with VERO (Table 6) and in the test on MCF-7 (Table 6) was greater than 50 µM each time. For the same molecule, 1 µM produced 3% inhibition against KDM6A (UTX) (Table 3). At KDM6A (UTX) (Table 3), this molecule returned an inhibition at 10 µM of 100%.
As for `Cc1c(O)c(=O)ccn1[C@H]1CC[C@H](n2ccc(=O)c(O)c2C)CC1` [3e], the IC50 in the test on MDA-MB-231 (Table 6) was 36.9 µM; in the test with VERO (Table 6), greater than 50 µM; in the test on MCF-7 (Table 6) it was greater than 50 µM. The same molecule registered an inhibition at 1 µM on KDM6A (UTX) (Table 3) of 5%. This molecule also returned an inhibition at 10 µM at KDM6A (UTX) (Table 3) of 100%.
With `Cc1c(O)c(=O)ccn1Cc1ccc(Cn2ccc(=O)c(O)c2C)cc1` [3f], the IC50 is 25 µM in the test on MDA-MB-231 (Table 6); greater than 50 µM in the test with VERO (Table 6); 378 µM in the test with MCF-7 (Table 6, values calculated by linear regression). Moreover, at KDM6A (UTX) (Table 3), the inhibition at 1 µM came to 5%. On KDM6A (UTX) (Table 3), this molecule registered an inhibition at 10 µM of 100%.

(Values after article PMC6423038, “Deferiprone: Pan-selective Histone Lysine Demethylase Inhibition Activity and Structure Activity Relationship Study” (Scientific Reports, 2019).)
